Test results published in ChEMBL document CHEMBL3611986, “Reversal of P-gp and BCRP-mediated MDR by tariquidar derivatives” (Eur J Med Chem, 2015).

Experiments:
[1] = Cytotoxicity against human MCF-7 FLV1000 cells expressing BCRP at 200 nM after 72 hrs by SRB assay; format: ADME, cell-based; conditions: mcf-7 flv1000, 72 h, 0.2 µM
[2] = Cytotoxicity against human HFE cells assessed as cell viability after 72 hrs by MTT assay; format: cell-based
[3] = tested on: SW-620; assay: Potentiation of doxorubicin-induced cytotoxicity against human SW620 cells at 200 nM after 72 hrs by SRB assay relative to control; format: functional
[4] = target: T1, ATP-dependent translocase ABCB1 (Homo sapiens, UniProt P08183); assay: Inhibition of p-glycoprotein in human HepG2 cells assessed as increase of doxorubicin-induced cytotoxicity at 200 nM after 72 hrs by SRB assay relative to control; format: cell-based; conditions: hepg2, 72 h, 0.2 µM
T1 sequence (P08183 whole entry): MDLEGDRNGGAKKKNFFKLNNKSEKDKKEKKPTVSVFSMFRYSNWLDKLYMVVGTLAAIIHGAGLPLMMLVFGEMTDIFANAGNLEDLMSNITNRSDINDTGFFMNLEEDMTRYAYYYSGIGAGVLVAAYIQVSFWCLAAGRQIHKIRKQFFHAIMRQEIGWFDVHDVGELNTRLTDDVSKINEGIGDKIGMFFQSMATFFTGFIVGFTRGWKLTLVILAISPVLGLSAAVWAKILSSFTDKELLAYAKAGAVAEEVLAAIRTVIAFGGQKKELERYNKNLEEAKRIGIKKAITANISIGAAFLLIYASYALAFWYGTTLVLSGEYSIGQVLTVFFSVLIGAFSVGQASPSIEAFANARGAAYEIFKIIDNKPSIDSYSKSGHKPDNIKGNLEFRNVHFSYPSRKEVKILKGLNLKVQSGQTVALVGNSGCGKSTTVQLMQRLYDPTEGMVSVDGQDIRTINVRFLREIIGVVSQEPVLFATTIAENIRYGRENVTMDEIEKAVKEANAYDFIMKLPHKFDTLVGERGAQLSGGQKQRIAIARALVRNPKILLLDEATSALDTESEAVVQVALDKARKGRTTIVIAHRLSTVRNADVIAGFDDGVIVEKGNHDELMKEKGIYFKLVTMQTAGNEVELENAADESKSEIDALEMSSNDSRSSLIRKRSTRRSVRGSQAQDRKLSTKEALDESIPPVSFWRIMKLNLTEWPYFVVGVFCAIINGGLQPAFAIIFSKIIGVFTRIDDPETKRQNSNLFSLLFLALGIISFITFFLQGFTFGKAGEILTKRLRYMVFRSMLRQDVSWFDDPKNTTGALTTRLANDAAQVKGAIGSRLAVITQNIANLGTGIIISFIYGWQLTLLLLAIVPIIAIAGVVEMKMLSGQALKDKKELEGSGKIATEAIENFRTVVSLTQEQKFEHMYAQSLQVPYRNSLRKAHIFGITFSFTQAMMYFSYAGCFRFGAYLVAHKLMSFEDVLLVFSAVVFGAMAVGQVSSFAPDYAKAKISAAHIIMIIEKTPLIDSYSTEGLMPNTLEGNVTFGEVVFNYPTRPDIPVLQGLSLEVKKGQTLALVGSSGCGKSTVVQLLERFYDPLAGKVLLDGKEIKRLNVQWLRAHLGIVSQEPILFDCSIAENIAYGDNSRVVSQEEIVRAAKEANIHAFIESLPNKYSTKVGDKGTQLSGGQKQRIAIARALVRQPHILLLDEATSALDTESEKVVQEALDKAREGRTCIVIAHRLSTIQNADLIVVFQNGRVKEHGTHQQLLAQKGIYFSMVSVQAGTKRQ

[5] = tested on: HepG2; assay: Cytotoxicity against human HepG2 cells expressing p-glycoprotein at 200 nM after 72 hrs by SRB assay; format: cell-based; conditions: hepg2, 72 h, 0.2 µM
[6] = tested on: K562; assay: Effect on rhodamine-123 efflux in wild type human K562 cells at 0.5 uM after 1 hr by flow cytometry; format: ADME, cell-based; conditions: k562, 1 h
[7] = target: T1, ATP-dependent translocase ABCB1; assay: Inhibition of p-glycoprotein in human LCC6/MDR cells assessed as increase of paclitaxel-induced cytotoxicity at 200 nM after 72 hrs by SRB assay relative to control; format: cell-based; conditions: 0.2 µM
[8] = tested on: K562; assay: Induction of UIC2 antibody binding to p-glycoprotein in human K562 cells at 0.5 uM preincubated for 10 mins followed by antibody addition measured after 45 mins by flow cytometry relative to tariquidar; format: cell-based
[9] = tested on: Hepatocyte; assay: Cytotoxicity against rat hepatocytes assessed as cell viability after 72 hrs by MTT assay; format: cell-based
[10] = Cytotoxicity against human SW620/AD300 cells assessed as cell viability after 48 hrs by MTT assay; format: cell-based; conditions: SW-620, 48 h
[11] = tested on: HCT-116; assay: Cytotoxicity against human HCT116 cells assessed as cell viability after 48 hrs by MTT assay; format: cell-based; conditions: HCT-116, 48 h
[12] = Cytotoxicity against human CCD-18Co cells assessed as cell viability after 48 hrs by MTT assay; format: cell-based
[13] = target: T1, ATP-dependent translocase ABCB1; assay: Inhibition of p-glycoprotein-mediated doxorubicin efflux in human K562/p-gp cells at 1 uM after 1 hr by flow cytometry; format: cell-based
[14] = tested on: MCF7; assay: Cytotoxicity against human MCF7 cells at 200 nM after 72 hrs by SRB assay; format: cell-based; conditions: mcf7, 72 h, 0.2 µM
[15] = Cytotoxicity against human LCC6 cells expressing p-glycoprotein at 200 nM after 72 hrs by SRB assay; format: cell-based; conditions: lcc6, 72 h, 0.2 µM
[16] = tested on: HepG2; assay: Potentiation of doxorubicin-induced cytotoxicity against human HepG2 cells at 200 nM after 72 hrs by SRB assay relative to control; format: functional
[17] = target: T2, Broad substrate specificity ATP-binding cassette transporter ABCG2 (Homo sapiens, UniProt Q9UNQ0); assay: Induction of BCRP (unknown origin) expressed in High five insect cell membranes assessed as ATP hydrolysis after 10 mins by colorimetric ATPase assay
T2 sequence (Q9UNQ0 whole entry): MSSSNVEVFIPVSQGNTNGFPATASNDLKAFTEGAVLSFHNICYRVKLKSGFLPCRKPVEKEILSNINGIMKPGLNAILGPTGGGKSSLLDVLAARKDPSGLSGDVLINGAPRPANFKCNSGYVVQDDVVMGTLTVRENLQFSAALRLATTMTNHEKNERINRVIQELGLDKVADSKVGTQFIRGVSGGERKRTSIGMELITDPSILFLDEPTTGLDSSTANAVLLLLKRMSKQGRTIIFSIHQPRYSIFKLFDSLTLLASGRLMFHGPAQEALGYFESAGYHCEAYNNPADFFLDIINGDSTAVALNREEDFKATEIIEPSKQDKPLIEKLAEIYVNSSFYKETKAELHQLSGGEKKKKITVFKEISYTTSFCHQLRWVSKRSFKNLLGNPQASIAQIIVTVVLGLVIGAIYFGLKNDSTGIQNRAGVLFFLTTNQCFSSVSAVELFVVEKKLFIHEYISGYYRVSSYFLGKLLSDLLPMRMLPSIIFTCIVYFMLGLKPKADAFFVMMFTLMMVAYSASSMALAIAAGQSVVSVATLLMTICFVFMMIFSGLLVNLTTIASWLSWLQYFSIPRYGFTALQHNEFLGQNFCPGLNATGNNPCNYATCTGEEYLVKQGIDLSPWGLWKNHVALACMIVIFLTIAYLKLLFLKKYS

[18] = target: T2, Broad substrate specificity ATP-binding cassette transporter ABCG2; assay: Inhibition of BCRP in human MCF-7 FLV1000 cells assessed as increase of mitoxantrone-induced cytotoxicity at 200 nM after 72 hrs by SRB assay relative to control; format: cell-based; conditions: 0.2 µM
[19] = target: T2, Broad substrate specificity ATP-binding cassette transporter ABCG2; assay: Inhibition of BCRP-mediated pheophorbide-A efflux in human K562/BCRP cells at 0.5 uM after 1 hr by flow cytometry; format: cell-based; conditions: k562/bcrp, 1 h, 0.5 µM
[20] = Potentiation of paclitaxel-induced cytotoxicity against human LCC6 cells at 200 nM after 72 hrs by SRB assay relative to control; format: functional
[21] = target: T1, ATP-dependent translocase ABCB1; assay: Inhibition of p-glycoprotein in human SW620/AD300 cells assessed as increase of doxorubicin-induced cytotoxicity at 200 nM after 72 hrs by SRB assay relative to control; format: cell-based; conditions: sw-620, 72 h, 0.2 µM
[22] = tested on: HepG2; assay: Cytotoxicity against human HepG2 cells at 200 nM after 72 hrs by SRB assay; format: cell-based; conditions: hepg2, 72 h, 0.2 µM
[23] = target: T1, ATP-dependent translocase ABCB1; assay: Inhibition of p-glycoprotein-mediated rhodamine-123 efflux in human K562/p-gp cells after 1 hr by flow cytometry; format: cell-based
[24] = target: T2, Broad substrate specificity ATP-binding cassette transporter ABCG2; assay: Induction of 5D3 antibody binding to BCRP in human K562 cells at 0.5 uM preincubated for 10 mins followed by antibody addition measured after 45 mins by flow cytometry relative to tariquidar; format: cell-based; conditions: k562, 0.75 h
[25] = Cytotoxicity against human SW620/AD300 cells expressing p-glycoprotein at 200 nM after 72 hrs by SRB assay; format: cell-based; conditions: sw-620, 72 h, 0.2 µM
[26] = target: P-glycoprotein (ABCB1) (Homo sapiens, UniProt P08183); assay: (§1) Inhibition of p-glycoprotein-mediated rhodamine-123 efflux in human K562/p-gp cells at 0.5 uM after 1 hr by flow cytometry relative to tariquidar; format: cell-based; conditions: K562/p-gp cells, probe rhodamine-123
Chain of P-glycoprotein (ABCB1) (P08183 whole entry): as the sequence (P08183 whole entry) above

[27] = Cytotoxicity against human LCC6 cells at 200 nM after 72 hrs by SRB assay; format: cell-based; conditions: lcc6, 72 h, 0.2 µM
[28] = organism: Homo sapiens; assay: Inhibition of p-glycoprotein (unknown origin) expressed in High five insect cell membranes assessed as ATP hydrolysis after 20 mins by colorimetric ATPase assay
[29] = tested on: SW-620; assay: Cytotoxicity against human SW620 cells at 200 nM after 72 hrs by SRB assay; format: cell-based; conditions: sw-620, 72 h, 0.2 µM
[30] = target: Multidrug resistance-associated protein 1 (Homo sapiens, UniProt P33527); assay: Inhibition of MRP1 (unknown origin)-mediated calcein-AM efflux expressed in HEK293/MRP1 cells at 0.5 uM after 1 hr by flow cytometry; format: cell-based; conditions: hek293/mrp1, 1 h
Chain of Multidrug resistance-associated protein 1 (P33527 whole entry): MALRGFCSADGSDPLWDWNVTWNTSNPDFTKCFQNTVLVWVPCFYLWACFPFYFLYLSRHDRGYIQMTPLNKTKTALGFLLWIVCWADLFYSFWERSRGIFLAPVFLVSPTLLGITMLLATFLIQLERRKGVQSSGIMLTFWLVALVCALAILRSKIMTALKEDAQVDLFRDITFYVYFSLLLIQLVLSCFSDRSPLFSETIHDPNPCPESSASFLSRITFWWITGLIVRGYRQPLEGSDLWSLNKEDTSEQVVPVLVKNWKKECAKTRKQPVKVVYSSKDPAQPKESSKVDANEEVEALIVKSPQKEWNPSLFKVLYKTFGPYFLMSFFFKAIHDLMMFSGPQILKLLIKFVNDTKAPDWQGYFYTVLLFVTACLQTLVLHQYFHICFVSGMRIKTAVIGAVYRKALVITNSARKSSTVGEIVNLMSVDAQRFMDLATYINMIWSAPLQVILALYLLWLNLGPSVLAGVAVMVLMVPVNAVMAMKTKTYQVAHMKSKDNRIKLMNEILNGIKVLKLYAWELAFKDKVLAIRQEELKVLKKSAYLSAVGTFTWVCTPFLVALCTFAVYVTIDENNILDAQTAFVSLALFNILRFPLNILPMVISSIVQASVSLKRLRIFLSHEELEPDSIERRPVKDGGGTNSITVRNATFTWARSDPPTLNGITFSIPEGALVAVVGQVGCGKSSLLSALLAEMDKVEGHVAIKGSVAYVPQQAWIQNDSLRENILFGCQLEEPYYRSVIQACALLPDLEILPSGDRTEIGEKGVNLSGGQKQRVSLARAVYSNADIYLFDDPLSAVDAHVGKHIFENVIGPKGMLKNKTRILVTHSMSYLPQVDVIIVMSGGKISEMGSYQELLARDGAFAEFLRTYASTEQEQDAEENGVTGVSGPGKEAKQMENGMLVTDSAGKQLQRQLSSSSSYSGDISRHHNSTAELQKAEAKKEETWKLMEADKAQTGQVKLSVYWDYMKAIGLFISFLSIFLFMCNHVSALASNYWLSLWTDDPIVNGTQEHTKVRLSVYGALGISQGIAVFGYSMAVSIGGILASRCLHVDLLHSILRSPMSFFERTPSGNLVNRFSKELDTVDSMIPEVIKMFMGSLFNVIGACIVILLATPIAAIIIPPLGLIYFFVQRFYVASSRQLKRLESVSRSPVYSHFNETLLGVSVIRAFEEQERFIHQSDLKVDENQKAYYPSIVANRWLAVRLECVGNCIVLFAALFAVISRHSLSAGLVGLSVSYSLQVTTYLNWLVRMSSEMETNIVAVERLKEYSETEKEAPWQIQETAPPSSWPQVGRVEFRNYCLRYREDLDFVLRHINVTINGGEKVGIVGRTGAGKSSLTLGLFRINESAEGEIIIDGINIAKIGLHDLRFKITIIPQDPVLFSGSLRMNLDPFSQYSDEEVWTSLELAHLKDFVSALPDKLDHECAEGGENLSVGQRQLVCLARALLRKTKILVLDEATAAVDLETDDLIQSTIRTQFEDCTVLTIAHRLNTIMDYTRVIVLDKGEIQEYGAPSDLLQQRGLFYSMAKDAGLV

[31] = tested on: SW-620; assay: Cytotoxicity against human SW620 cells assessed as cell viability after 48 hrs by MTT assay; format: cell-based; conditions: SW-620, 48 h
[32] = tested on: MCF7; assay: Potentiation of mitoxantrone-induced cytotoxicity against human MCF7 cells at 200 nM after 72 hrs by SRB assay relative to control; format: functional
[33] = target: T1, ATP-dependent translocase ABCB1; assay: as §1; format: cell-based; conditions: 1 h, 0.5 µM

Structure (SMILES) | Activity [1] | IC50 [2] [µM] | fold change (FC) [3] | fold change (FC) [4] | Activity [5] | Activity [6] | fold change (FC) [7] | Activity [8] [%] | IC50 [10] [µM] | IC50 [11] [µM] | IC50 [12] [µM] | Activity [14] | Activity [15] | fold change (FC) [16] | Activity [17] | fold change (FC) [18] | inhibition (INH) [19] | fold change (FC) [20] | fold change (FC) [21] | Activity [22] | further results
COc1cc2c(cc1OC)CN(CCc1ccc(NC(=O)c3ccccc3NC(=O)c3cnc4ccccc4c3)cc1)CC2 | Non-toxic | > 5 | 0.36 | 0.38 | Non-toxic | Non-toxic | 2.8 | 93.2 | > 100 | > 100 | > 100 | Non-toxic | Non-toxic | 0.29 | Active | 2.9 | Active | 0.9 | 6.23 | Non-toxic | IC50 ([9]; Rattus norvegicus, Hepatocyte): 50 µM; inhibition (INH) [13]: Active; inhibition (INH) [23]: Dose-dependent effect; Activity [24]: 90.7%; Activity [25]: Non-toxic; inhibition at 1 h, 0.5 µM [26]: 90.5%; Activity [27]: Non-toxic; inhibition [28]: Dose-dependent effect; Activity [29]: Non-toxic; inhibition (INH) [30]: Not Active; IC50 [31]: > 100 µM; fold change (FC) [32]: 1.3
COc1cc2c(cc1OC)CN(CCc1ccc(NC(=O)c3ccccc3NC(=O)c3ccco3)cc1)CC2 | Non-toxic | > 100 | 2.1 | 3 | Non-toxic | Non-toxic | 46 | 35.5 | > 100 | > 100 | > 100 | Non-toxic | Non-toxic | 1.09 | Active | 2.1 | Active | 1.3 | 2.63 | Non-toxic | Activity ([9]; rat, hepatocytes): Non-toxic; inhibition (INH) [23]: Dose-dependent effect; Activity [24]: 149.4%; Activity [25]: Non-toxic; inhibition (INH) [33]: Active; Activity [27]: Non-toxic; inhibition [28]: Dose-dependent effect; Activity [29]: Non-toxic; inhibition (INH) [30]: Not Active; IC50 [31]: > 100 µM; fold change (FC) [32]: 1.4
